Values of other authors in PMC7904743, “WIDOCK: a reactive docking protocol for virtual screening of covalent inhibitors” (Journal of Computer-Aided Molecular Design, 2021).
Where two headings read alike, the source gives them in different places.

Tests used:
[1] = test system: OTUB2; settings: experimental actives if % labeling higher than 50%, cited from earlier work
[2] = thiol reactivity, cited from earlier work
[3] = test system: NUDT7; settings: protein labeling at 200 μM; experimental actives if % labeling higher than 50%; cited from earlier work
[4] = natural log of average kinetic rate constant
[5] = natural log of average rate constant
[6] = natural log of average rate constant k
[7] = natural logarithm of average rate constant

O=C(CCl)N(C1CCCCC1)C1CCS(=O)(=O)C1 (stereo not drawn) [PCM-0102760, O=C(CCl)N(C1CCCCC1)C1CCS(=O)(=O)C1]
OTUB2 % labeling ([1]; OTUB2 protein labeling): 0% | ln(avg k) [2, 4]: -15.274 | ln(avg k) [2, 5]: -15.274 | NUDT7 % labeling [3]: 8%

Cc1c(C#N)c(NC(=O)CCl)n(-c2ccc(F)cc2)c1C [PCM-0102099, Cc1c(C#N)c(NC(=O)CCl)n(-c2ccc(F)cc2)c1C]
OTUB2 % labeling [1]: 0% | ln(avg k) [2, 6]: -15.940 | ln(avg k) [2, 7]: -15.940 | NUDT7 % labeling [3]: 17%

O=C(CCl)N1CCN(c2cccc(C(F)(F)F)c2)CC1 [PCM-0102239, O=C(CCl)N1CCN(c2cccc(C(F)(F)F)c2)CC1]
OTUB2 % labeling [1]: 0% | ln(avg k) [2, 6]: -15.673 | ln(avg k) [2, 7]: -15.673 | NUDT7 % labeling [3]: 8%

Cc1c(C#N)c(NC(=O)CCl)n(-c2ccccc2)c1C [PCM-0102261, Cc1c(C#N)c(NC(=O)CCl)n(-c2ccccc2)c1C]
OTUB2 % labeling [1]: 9% | ln(avg k) [2, 6]: -16.038 | ln(avg k) [2, 7]: -16.038 | NUDT7 % labeling [3]: 30%

CCc1nnc(NC(=O)CCl)s1 [PCM-0102166, CCc1nnc(NC(=O)CCl)s1]
OTUB2 % labeling [1]: 0% | ln(avg k) [2, 6]: -16.086 | ln(avg k) [2, 7]: -16.086 | NUDT7 % labeling [3]: 21%

O=C(CCl)NCC12CC3CC(CC(C3)C1)C2 [PCM-0102706, O=C(CCl)NCC12CC3CC(CC(C3)C1)C2]
OTUB2 % labeling [1]: 65% | ln(avg k) [2, 5]: -16.508 | ln(avg k) [2, 7]: -16.508 | NUDT7 % labeling [3]: 0%

O=C(CCl)NCc1ccc(F)cc1 [PCM-0102192, O=C(CCl)NCc1ccc(F)cc1]
OTUB2 % labeling [1]: 31% | ln(avg k) [2, 6]: -16.677 | ln(avg k) [2, 7]: -16.677 | NUDT7 % labeling [3]: 0%

O=C(CCl)N1CCN(c2ccc(Cl)cc2[N+](=O)[O-])CC1 [PCM-0102125, O=C(CCl)N1CCN(c2ccc(Cl)cc2[N+](=O)[O-])CC1]
OTUB2 % labeling [1]: 0% | ln(avg k) [2, 6]: -15.501 | ln(avg k) [2, 7]: -15.501 | NUDT7 % labeling [3]: 29%

Cc1cc(NC(=O)CCl)n(-c2ccccc2F)n1 [PCM-0103066, Cc1cc(NC(=O)CCl)n(-c2ccccc2F)n1]
OTUB2 % labeling ([1]; OTUB2 protein labeling): 44% | ln(avg k) [2, 4]: -15.986 | ln(avg k) [2, 5]: -15.986 | NUDT7 % labeling [3]: 0%

CN(CC1COc2ccccc2O1)C(=O)CCl (stereo not drawn) [PCM-0102756, CN(CC1COc2ccccc2O1)C(=O)CCl]
OTUB2 % labeling ([1]; OTUB2 protein labeling): 6% | ln(avg k) [2, 4]: -15.581 | ln(avg k) [2, 5]: -15.581 | NUDT7 % labeling [3]: 16%

O=C(CCl)Nc1ccc(C(=O)O)cc1 [PCM-0102400, O=C(CCl)Nc1ccc(C(=O)O)cc1]
OTUB2 % labeling [1]: 0% | ln(avg k) [2, 6]: -16.430 | ln(avg k) [2, 7]: -16.430 | NUDT7 % labeling [3]: 0%

Cc1ccc([N+](=O)[O-])cc1NC(=O)CCl [PCM-0102098, Cc1ccc([N+](=O)[O-])cc1NC(=O)CCl]
OTUB2 % labeling [1]: 33% | ln(avg k) [2, 6]: -15.712 | ln(avg k) [2, 7]: -15.712 | NUDT7 % labeling [3]: 12%

CN(C(=O)CCl)c1ccc([N+](=O)[O-])cc1 [PCM-0102669, CN(C(=O)CCl)c1ccc([N+](=O)[O-])cc1]
OTUB2 % labeling [1]: 0% | ln(avg k) [2, 6]: -15.479 | ln(avg k) [2, 7]: -15.479 | NUDT7 % labeling [3]: 14%

O=C(CCl)Nc1cccc(C(F)(F)F)c1 [PCM-0102290, O=C(CCl)Nc1cccc(C(F)(F)F)c1]
OTUB2 % labeling [1]: 26% | ln(avg k) [2, 6]: -15.516 | ln(avg k) [2, 7]: -15.516 | NUDT7 % labeling [3]: 12%

COC(=O)C1CN(C(=O)CCl)c2ccccc2O1 (stereo not drawn) [PCM-0102880, COC(=O)C1CN(C(=O)CCl)c2ccccc2O1]
OTUB2 % labeling ([1]; OTUB2 protein labeling): 11% | ln(avg k) [2, 4]: -17.563 | ln(avg k) [2, 5]: -17.563 | NUDT7 % labeling [3]: 0%
